The record followed here is ChEMBL document CHEMBL1130679, “Novel phosphate mimetics for the design of non-peptidyl inhibitors of protein tyrosine phosphatases” (Bioorg Med Chem Lett, 1998).

The target in the first assay is T1, Tyrosine-protein phosphatase non-receptor type 1 (Homo sapiens, UniProt P18031).
T1 sequence (P18031 whole entry): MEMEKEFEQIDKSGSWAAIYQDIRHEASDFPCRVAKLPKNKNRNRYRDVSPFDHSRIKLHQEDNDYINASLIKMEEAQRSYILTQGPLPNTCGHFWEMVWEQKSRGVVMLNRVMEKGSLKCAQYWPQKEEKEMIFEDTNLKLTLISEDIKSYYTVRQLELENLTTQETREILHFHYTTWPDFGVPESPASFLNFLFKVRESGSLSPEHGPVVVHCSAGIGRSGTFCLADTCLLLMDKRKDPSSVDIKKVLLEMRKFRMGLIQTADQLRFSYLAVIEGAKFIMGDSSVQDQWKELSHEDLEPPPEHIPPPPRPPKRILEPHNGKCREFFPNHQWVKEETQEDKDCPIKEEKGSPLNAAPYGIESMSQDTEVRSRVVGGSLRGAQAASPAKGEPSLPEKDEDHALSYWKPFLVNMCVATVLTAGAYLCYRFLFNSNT
Briefly: Inhibitory activity against PTP1B as a model Protein tyrosine […] (PTP) using fluorescein diphosphate as substrate at Km concentration (20 uM) at th.
In general, IC50 refers to the point on the concentration scale where inhibition reaches its midpoint. In the case of `O=P(O)(O)OC(F)(F)c1cccc(-c2ccccc2)c1`, the IC50 is 15 µM.

The target in the next assay is T1, Tyrosine-protein phosphatase non-receptor type 1. Briefly: Inhibitory activity against protein tyrosine phosphatase 1B (PTP1B) using fluorescein diphosphate as substrate at Km concentration (20 uM).
`O=C(O)C(F)(F)c1cccc(-c2ccccc2)c1` had an IC50 of 435 µM.
As to `FC(F)(c1ccc2ccccc2c1)c1nnn[nH]1`, the IC50 was found to be 230 µM.
The compound `O=P(O)(O)OC(F)(F)c1ccc2ccccc2c1` came in with an IC50 of 35 µM.
`O=S(=O)(O)C(F)(F)c1cccc(-c2ccccc2)c1`: the IC50 stood at 115 µM.
As to `O=S(=O)(O)C(F)(F)c1ccc2ccccc2c1`, the midpoint of inhibition, the IC50, lay at 175 µM.
For `O=C(O)C(F)(Oc1cccc(-c2ccccc2)c1)C(=O)O`, half-maximal inhibition (IC50) required 250 µM.
Same read-out and setting: to `O=C(O)C(F)(Oc1ccc2ccccc2c1)C(=O)O` belongs 320 µM.
Compound `O=C(O)C(F)(F)c1ccc2ccccc2c1` yielded an IC50 of 640 µM.
Take `FC(F)(c1cccc(-c2ccccc2)c1)c1nnn[nH]1`: the IC50 stood at 195 µM.

The next assay has as its target T2, Tyrosine-protein phosphatase non-receptor type 1 (Homo sapiens) (UniProt P18031).
T2 sequence (whole entry): T1 sequence (P18031 whole entry)
Briefly: Inhibitory activity against protein tyrosine phosphatase 1B (PTP1B) at 500 uM conc. using fluorescein diphosphate as substrate at Km concentration (20 uM).
As a reminder, the inhibition is the share of the control response that was lost under treatment. Lower therefore signals a response near the control. Regarding `O=C(O)Cc1ccc2ccccc2c1`, the inhibition came to 4%.
In the case of `O=S(=O)(O)Cc1ccc2ccccc2c1`, the inhibition is 5%.
`c1ccc2cc(Cc3nnn[nH]3)ccc2c1` came in with an inhibition of 12%.
In turn, `O=S(=O)(O)Cc1cccc(-c2ccccc2)c1` came in with an inhibition of 10%.
Take `O=P(O)(O)Cc1cccc(-c2ccccc2)c1`: the inhibition was found to be 17%.
The same measure, in the same setting: to `O=P(O)(O)Cc1ccc2ccccc2c1` belongs 9%; to `O=C(O)Cc1cccc(-c2ccccc2)c1`, 10%; to `c1ccc(-c2cccc(Cc3nnn[nH]3)c2)cc1`, 15%.

The target in a further assay is T1, Tyrosine-protein phosphatase non-receptor type 1. Briefly: Binding affinity against Protein tyrosine phosphatase-1B (PTP1B).
By Ki is commonly meant a dissociation constant, usually derived from enzyme kinetics or from competition with a known ligand. Compound `O=S(=O)(O)C(F)(F)c1cccc(-c2ccccc2)c1` gave a Ki of 49 µM.
As to `FC(F)(c1cccc(-c2ccccc2)c1)c1nnn[nH]1`, the Ki is 98 µM.
